Experimental data reported in patent US9820951B2, “Pulmonary disease treatment and diagnosis based on Arhgef1” (NATIONAL JEWISH HEALTH, A NON-PROFIT ORGANIZATION, priority 2011, dated 2017).

How the values were obtained:
[1] = tested on: MMP9; assay: MMP9 activity by zymography in conditioned media of human peripheral blood monocytes cultured on fibronectin; type: cell-based
Method: (§1) FIG. 5. TP-induced MMP9 production is only partially dependent on COX activity. A) PEMs were cultured on fibronectin for 24 hours with 5% FCS, washed then treated with different concentration of aspirin or 1.6 μM PTXA2 at for an additional 24 hours without FCS. MMP9 activity was determined by zymography from supernatants of wild type (open) or Arhgef1−/− (filled) macrophages. Activity was normalized to activity generated from cells cultured on fibronectin without treatment. B) MMP9 activity in conditioned media from peripheral blood monocytes cultured as described in panel A. Data represents mean±SE (n=3 independent donors).
Tissue-culture 96-well plates (Costar high binding catalogue number 3590) were coated with 10 μg/ml of murine fibronectin (Molecular Innovations, Nori, Minn.; catalogue number MFBN) or human fibronectin (Molecular Innovations; catalogue number HFBN) in DPBS without Ca^2+ or Mg^2+ (Mediatech, Inc., Manassas, Va.) for 2 h at room temperature. […] PGE2 and TXB2 were measured in conditioned medium by ELISA according to the manufacturer's instructions (ElisaTech, Aurora, Colo.). […]
Peripheral blood monocytes were isolated from whole blood of healthy volunteers using protocols approved by the National Jewish Health Human Subjects Institutional Review Board. […] This procedure consistently yields monocyte purities of >80% as assessed by flow cytometry. […]

[2] = tested on: Mmp9; assay: MMP9 activity by gelatin zymography in conditioned media of mouse peritoneal macrophages cultured on fibronectin; type: cell-based; details: for maximal inhibition of fibronectin-induced MMP9 production/activity: both wild type and Arhgef1-deficient macrophages, aspirin up to 20 mM, L-161,982, PTA2 1.56 or 6.25 μM, L-655,240 28 μM
Method: as §1
FIG. 6. The antioxidant mimetic MnTE-2PyP reduces MMP9 activity in macrophages. PEMs were cultured on fibronectin for 24 hours with 5% FCS, washed then treated with MnTE-2PyP at the indicated concentrations for an additional 24 hours without FCS. MMP9 activity was determined by zymography from supernatants of wild type (open) or Arhgef1−/− (filled) macrophages. Activity was normalized to activity generated from cells cultured on fibronectin without treatment.
FIG. 11. Cyclooxygenase activity but not EP4 receptor signaling is required for MMP9 production by murine macrophages cultured on fibronectin. A, representative MMP9 gelatin zymograms of conditioned media from peritoneal macrophages cultured on either plastic (ctl) or FN and treated with increasing concentrations of aspirin (1.25, 5.0, and 20 mM, respectively). Wild type (+/+) and Arhgef1^−/− (−/−) samples from separate zymograms are shown. Molecular weight standards and respective enzymatic activities of MMP9 and MMP2 are shown. B, quantitation of MMP9 activity as determined by densitometric analysis of zymograms in A. MMP 9 activity is shown in arbitrary units and represents n=6 for both wild type (open bars) and Arhgef1^−/− (black bars) samples. The results are compiled from two independent experiments. The data represent the means±S.E. *, p<0.05 Student's two-tailed t test compared with conditioned media from cells cultured on plastic. #, p<0.05 Student's two-tailed test comparing conditioned media from wild type cells to Arhgef1^−/− cells cultured under identical conditions. $, p<0.05 Student's two-tailed t test compared with conditioned media from cells cultured on fibronectin. C, quantitation of MMP9 activity in conditioned media from macrophages cultured on fibronectin in the presence of the EP4 antagonist L161,982 (10 μM). MMP9 activity was normalized to fibronectin response for each genotype. The results are compiled from two independent experiments with wild type (open bars, n=5) and Arhgef1^−/− (black bars, n=5) samples. The data represent the means±S.E. *, p<0.05 Student's two-tailed t test compared with conditioned media from cells cultured on plastic. #, p<0.05 Student's two-tailed t test compared with conditioned media from cells cultured on fibronectin.
FIG. 12. Thromboxane receptor signaling is necessary for fibronectin-induced MMP9 production by macrophages and is attenuated by Arhgef1. A, representative gelatin zymograms of conditioned media from macrophages cultured on plastic (ctl) or FN and treated with 1.56 or 6.25 μM of the thromboxane receptor antagonist PTA2. Wild type (+/+) and Arhgef1^−/− (−/−) samples from separate zymograms are shown. B, quantitation of MMP9 activity as determined by densitometric analysis of zymograms in A. The results are representative of two independent experiments. C, representative zymograms from conditioned media from macrophages cultured on plastic or fibronectin and treated with 28 μM of the thromboxane receptor antagonist L-655,240. D, quantitation of MMP9 activity as determined by densitometric analysis of zymograms in C. The results are compiled from two independent experiments with n=4 for both wild type (open bars) and Arhgef1^−/− (black bars) samples. […]

Compound	fibronectin-mediated MMP9 activity (effect in words) ([1]; human peripheral blood monocytes, 1.6 μM PTXA2)	maximal inhibition of fibronectin-induced MMP9 production/activity [2]	fibronectin-mediated MMP9 activity (effect in words) ([2]; mouse macrophages, wild type and Arhgef1−/−, 1.6 μM PTXA2, 28 μM L-655,240)	reduction of MMP9 activity ([1]; human monocytes on fibronectin, highest aspirin concentration 5 mM, 24 h)	reduction of MMP9 activity ([2]; mouse peritoneal macrophages on fibronectin, highest aspirin concentration 5 mM, 24 h)
CCCCC[C@@H](O)/C=C/[C@H]1C[C@H]2C[C@@H]([C@@H]1C/C=C\CCCC(=O)O)C2(C)C (relative stereo) [PTXA2, (18-(1alpha,2beta(Z),3alpha(1E,3S*),5alpha))-7-(3-(3-Hydroxy-1-octenyl)-6,6-dimethylbicyclo(3.1.1)hept-2-yl)-5-heptenoic acid]	virtually ablated fibronectin-mediated MMP9 activity	80-85%	virtually ablated fibronectin-mediated MMP9 activity		
CC(=O)Oc1ccccc1C(=O)O [aspirin]		70-75%		40-50%	40-50%
